Data on 22 compounds can be found in patent publication US10597380B2, “Pyridazinone-based broad spectrum anti-influenza inhibitors” (Hoffmann-La Roche Inc., priority 2017, dated 2020).

The test deals with Influenza A/WSN/33-Luciferase virus. Nature of the test: microbe, parasite or virus in culture. Format: cell-based. Particulars: A549, 72 h, luciferase signal three days later, read-out: IC50 antiviral activity (Luciferase reporter assay). (Reporter assays use an easily measured gene product as a stand-in for the process of interest.)
By IC50 is commonly meant the concentration at which inhibition is half-maximal. Consider `COc1cccc2c(=O)n(-c3ccc(OC(F)(F)F)cc3)nc(Nc3cccn(C)c3=O)c12` [Example 19, 5-methoxy-4-[(1-methyl-2-oxo-3-pyridyl)amino]-2-[4-(trifluoromethoxy)phenyl]phthalazin-1-one], for which the IC50 came to 59500 nM.

Take `CN(C)C(=O)COCCn1cccc(Nc2nn(-c3ccc(OC(F)(F)F)cc3)c(=O)c3ccccc23)c1=O` [Example 103, N,N-dimethyl-2-[2-[2-oxo-3-[[4-oxo-3-[4-(trifluoromethoxy)phenyl]phthalazin-1-yl]amino]-1-pyridyl]ethoxy]acetamide]: the IC50 is 38 nM.

In the case of `O=C(O)C1CN(CCn2cccc(Nc3nn(-c4ccc(OC(F)(F)F)cc4)c(=O)c4c3CCC4)c2=O)CCO1` (stereo not shown) [Example 122, 4-[2-[2-oxo-3-[[4-oxo-3-[4-(trifluoromethoxy)phenyl]-6,7-dihydro-5H-cyclopenta[d]pyridazin-1-yl]amino]-1-pyridyl]ethyl]morpholine-2-carboxylic acid], the concentration for half-maximal inhibition (IC50) is 3710 nM.

`CN(C)Cc1ccc2c(Nc3cccn(C)c3=O)nn(-c3ccc(OC(F)(F)F)cc3)c(=O)c2c1` [Example 144, 7-[(Dimethylamino)methyl]-4-[(1-methyl-2-oxo-3-pyridyl)amino]-2-[4-(trifluoromethoxy)phenyl]phthalazin-1-one]: the IC50 came out at 625 nM.

Take `N[C@H]1CO[C@H](Cn2cccc(Nc3nn(-c4ccc(OC(F)(F)F)cc4)c(=O)c4c3CCC4)c2=O)OC1` [Example 170, trans-1-[[1-[(5-Amino-1,3-dioxan-2-yl)methyl]-2-oxo-3-pyridyl]amino]-3-[4-(trifluoromethoxy)phenyl]-6,7-dihydro-5H-cyclopenta[d]pyridazin-4-one]: the IC50 was 83 nM.

On to `CN(C)C(=O)CCCn1cccc(Nc2nn(-c3ccc(OC(F)(F)F)cc3)c(=O)c3c2CCC3)c1=O` [Example 106, N,N-dimethyl-4-[2-oxo-3-[[4-oxo-3-[4-(trifluoromethoxy)phenyl]-6,7-dihydro-5H-cyclopenta[d]pyridazin-1-yl]amino]-1-pyridyl]butanamide], for which the IC50 was determined as 14 nM.

For `O=c1c(Nc2nn(-c3ccc(OC(F)(F)F)cc3)c(=O)c3c2CCC3)cncn1CCO` [Example 47, 1-[[1-(2-hydroxyethyl)-6-oxo-pyrimidin-5-yl]amino]-3-[4-(trifluoromethoxy)phenyl]-6,7-dihydro-5H-cyclopenta[d]pyridazin-4-one], the IC50 was 71 nM.

As for `O=c1[nH]cccc1Nc1nn(-c2ccc(OC(F)(F)F)cc2)c(=O)c2ccccc12` [Example 2, 4-[(2-oxo-1H-pyridin-3-yl)amino]-2-[4-(trifluoromethoxy)phenyl]phthalazin-1-one], the IC50 is 54 nM.

Take `O=C(O)C1COCCN1CCn1cccc(Nc2nn(-c3ccc(OC(F)(F)F)cc3)c(=O)c3c2CCC3)c1=O` (stereo not shown) [Example 123, 4-[2-[2-oxo-3-[[4-oxo-3-[4-(trifluoromethoxy)phenyl]-6,7-dihydro-5H-cyclopenta[d]pyridazin-1-yl]amino]-1-pyridyl]ethyl]morpholine-3-carboxylic acid]: the IC50 was determined as 485 nM.

Take `CC(C)(Cn1cccc(Nc2nn(-c3ccc(OC(F)(F)F)cc3)c(=O)c3ccccc23)c1=O)C(N)=O` [Example 101, 2,2-dimethyl-3-[2-oxo-3-[[4-oxo-3-[4-(trifluoromethoxy)phenyl]phthalazin-1-yl]amino]-1-pyridyl]propanamide]: the IC50 is 109 nM.

Turning to `O=C(O)C1CCCN1CCn1cccc(Nc2nn(-c3ccc(OC(F)(F)F)cc3)c(=O)c3c2CCC3)c1=O` (stereo not shown) [Example 121, 1-[2-[2-oxo-3-[[4-oxo-3-[4-(trifluoromethoxy)phenyl]-6,7-dihydro-5H-1-yl]amino]-1-pyridyl]ethyl]pyrrolidine-2-carboxylic acid], the IC50 is 156 nM.

Consider `COCCOc1ccc2c(=O)n(-c3ccc(OC(F)(F)F)cc3)nc(Nc3cccn(C)c3=O)c2c1` [Example 136, 6-(2-Methoxyethoxy)-4-[(1-methyl-2-oxo-3-pyridyl)amino]-2-[4-(trifluoromethoxy)phenyl]phthalazin-1-one], for which the IC50 worked out at 61 nM.

Regarding `CN(C)CCNC(=O)Cn1cccc(Nc2nn(-c3ccc(OC(F)(F)F)cc3)c(=O)c3ccccc23)c1=O` [Example 93, N-[2-(dimethylamino)ethyl]-2-[2-oxo-3-[[4-oxo-3-[4-(trifluoromethoxy)phenyl]phthalazin-1-yl]amino]-1-pyridyl]acetamide], the IC50 came to 166 nM.

Consider `CN(C)CCn1cncc(Nc2nn(-c3ccc(OC(F)(F)F)cc3)c(=O)c3c2CCCC3)c1=O` [Example 25, 4-[[1-[2-(dimethylamino)ethyl]-6-oxo-pyrimidin-5-yl]amino]-2-[4-(trifluoromethoxy)phenyl]-5,6,7,8-tetrahydrophthalazin-1-one], for which the IC50 came to 14 nM.

In the case of `CN(C)CCn1cncc(Nc2nn(-c3ccc(OC(F)(F)F)cc3)c(=O)c3c2CCC3)c1=O` [Example 50, 1-[[1-[2-(dimethylamino)ethyl]-6-oxo-pyrimidin-5-yl]amino]-3-[4-(trifluoromethoxy)phenyl]-6,7-dihydro-5H-cyclopenta[d]pyridazin-4-one], the IC50 stood at 28 nM.

Consider `O=c1c(Nc2nn(-c3ccc(OC(F)(F)F)cc3)c(=O)c3c2CCC3)cccn1CC1COCCN1` (stereo not shown) [Example 127, 1-[[1-(morpholin-3-ylmethyl)-2-oxo-3-pyridyl]amino]-3-[4-(trifluoromethoxy)phenyl]-6,7-dihydro-5H-cyclopenta[d]pyridazin-4-one], for which the concentration for half-maximal inhibition (IC50) came out at 33 nM.

As to `Cn1cccc(Nc2nn(-c3ccc(C(C)(C)C)nc3)c(=O)c3c2CCC3)c1=O` [Example 58, 3-(6-tert-butyl-3-pyridyl)-1-[(1-methyl-2-oxo-3-pyridyl)amino]-6,7-dihydro-5H-cyclopenta[d]pyridazin-4-one], the IC50 amounted to 17 nM.

As to `CC(=O)N1CCc2c(Nc3cncn(C)c3=O)nn(-c3ccc(OC(F)(F)F)cc3)c(=O)c2C1` [Example 150, 6-Acetyl-1-[(1-methyl-6-oxo-pyrimidin-5-yl)amino]-3-[4-(trifluoromethoxy)phenyl]-7,8-dihydro-5H-pyrido[3,4-d]pyridazin-4-one], the IC50 was 104 nM.

Take `Cn1cccc(Nc2nn(-c3ccc(OC(F)(F)F)cc3)c(=O)c3c2CCN(CCO)C3)c1=O` [Example 147, 6-(2-Hydroxyethyl)-1-[(1-methyl-2-oxo-3-pyridyl)amino]-3-[4-(trifluoromethoxy)phenyl]-7,8-dihydro-5H-pyrido[3,4-d]pyridazin-4-one]: the IC50 stood at 76 nM.

As for `CNC(=O)CCCn1cccc(Nc2nn(-c3ccc(OC(F)(F)F)cc3)c(=O)c3c2CCC3)c1=O` [Example 105, N-methyl-4-[2-oxo-3-[[4-oxo-3-[4-(trifluoromethoxy)phenyl]-6,7-dihydro-5H-cyclopenta[d]pyridazin-1-yl]amino]-1-pyridyl]butanamide], the IC50 turned out to be 15 nM.

`CN(C)C(=O)CCCn1cccc(Nc2nn(-c3ccc(OC(F)(F)F)cc3)c(=O)c3ccccc23)c1=O` [Example 98, N,N-dimethyl-4-[2-oxo-3-[[4-oxo-3-[4-(trifluoromethoxy)phenyl]phthalazin-1-yl]amino]-1-pyridyl]butanamide]: the IC50 was 10 nM.

For `Cn1cccc(Nc2nn(-c3ccc(OC(F)(F)F)cc3)c(=O)c3cccc(F)c23)c1=O` [Example 18, 5-fluoro-4-[(1-methyl-2-oxo-3-pyridyl)amino]-2-[4-(trifluoromethoxy)phenyl]phthalazin-1-one], the IC50 came out at 122 nM.
